Test results published in patent US10711004B2 (Genentech, Inc., priority 2018, dated 2020).
Where two headings read alike, the source gives them in different places.

Molecular target: human TRPA1 channel (Homo sapiens (Human), UniProt O75762)
Assay: hTRPA1 CHO Ca2+ FLIPR Tetra assay, block of cinnamaldehyde induced calcium influx
Type: cell-based
Settings: CHO cells expressing TRPA1, Hill coefficient fixed to 1.5
Procedure, shortened: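 Calcium-dye-loaded TRPA1-expressing CHO cells in HBSS/20 mM HEPES pH 7.4, 0.02% BSA were preincubated with compound for 10 or 90 min at room temperature. Calcium influx evoked by roughly an EC50 concentration of cinnamaldehyde was then read on FLIPR Tetra; IC50 came from curve fits with a fixed Hill coefficient.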

[1] = read-out: hTRPA1 IC50 (10 min), compounds incubated 10 minutes at room temperature before cinnamaldehyde agonist
[2] = read-out: hTRPA1 IC50 (90 min), compounds incubated 90 minutes at room temperature before cinnamaldehyde agonist
[3] = compounds incubated 90 minutes at room temperature before cinnamaldehyde agonist

human TRPA1 channel, sequence (O75762 whole entry): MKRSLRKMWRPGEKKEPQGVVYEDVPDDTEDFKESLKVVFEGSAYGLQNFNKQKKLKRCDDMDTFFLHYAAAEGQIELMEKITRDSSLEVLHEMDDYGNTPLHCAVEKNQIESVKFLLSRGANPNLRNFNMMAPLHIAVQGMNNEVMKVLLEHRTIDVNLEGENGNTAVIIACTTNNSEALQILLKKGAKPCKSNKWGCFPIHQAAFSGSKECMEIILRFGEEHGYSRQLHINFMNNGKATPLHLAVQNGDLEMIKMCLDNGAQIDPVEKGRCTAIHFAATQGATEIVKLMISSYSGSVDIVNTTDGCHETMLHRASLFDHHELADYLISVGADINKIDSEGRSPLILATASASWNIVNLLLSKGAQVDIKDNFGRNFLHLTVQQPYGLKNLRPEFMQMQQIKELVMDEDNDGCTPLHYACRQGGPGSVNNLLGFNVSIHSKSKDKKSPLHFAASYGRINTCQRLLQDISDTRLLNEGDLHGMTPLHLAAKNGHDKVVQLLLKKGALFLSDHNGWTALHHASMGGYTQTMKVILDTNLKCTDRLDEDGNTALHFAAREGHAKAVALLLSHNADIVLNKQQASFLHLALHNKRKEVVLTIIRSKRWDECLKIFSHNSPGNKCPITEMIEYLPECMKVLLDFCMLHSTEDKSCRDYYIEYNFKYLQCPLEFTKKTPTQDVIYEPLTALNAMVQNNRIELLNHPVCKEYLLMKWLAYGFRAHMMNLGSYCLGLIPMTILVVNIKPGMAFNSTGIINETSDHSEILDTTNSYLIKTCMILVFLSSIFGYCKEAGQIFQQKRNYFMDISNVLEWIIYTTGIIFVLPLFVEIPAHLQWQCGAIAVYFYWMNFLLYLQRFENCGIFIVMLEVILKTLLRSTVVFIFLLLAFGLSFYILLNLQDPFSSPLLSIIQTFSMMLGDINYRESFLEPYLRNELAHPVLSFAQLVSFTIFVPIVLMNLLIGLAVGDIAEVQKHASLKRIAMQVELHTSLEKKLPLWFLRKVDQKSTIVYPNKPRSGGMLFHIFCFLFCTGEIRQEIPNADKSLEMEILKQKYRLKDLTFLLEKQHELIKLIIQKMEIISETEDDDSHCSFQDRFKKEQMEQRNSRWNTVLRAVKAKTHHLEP

Structure (SMILES)	IC50 [1] [nM]	IC50 [2] [nM]	IC50 (compounds incubated 10 minutes at room temperature before cinnamaldehyde agonist) [nM]	IC50 [3] [nM]
O=c1c2cccnc2ncn1Cc1nc([C@H]2C[C@](F)(c3cccc(Cl)c3)C2)no1 [Example Compound 198, 3-((3-((1s,3s)-3-(3-chlorophenyl)-3-fluorocyclobutyl)-1,2,4-oxadiazol-5-yl)methyl)pyrido[2,3-d]pyrimidin-4(3H)-one]	58.7	–	–	–
Cn1cnc2ncn(Cc3nc([C@H]4[C@@H]5CN(c6cccc(-c7cnco7)c6)C[C@@H]54)no3)c(=O)c21 [Example Compound 199, 7-methyl-1-((3-((1R,5S,6r)-3-(3-(oxazol-5-yl)phenyl)-3-azabicyclo[3.1.0]hexan-6-yl)-1,2,4-oxadiazol-5-yl)methyl)-1,7-dihydro-6H-purin-6-one]	26.2	22	–	–
Cn1cc(-c2cccc(N3C[C@@H]4[C@H](C3)[C@H]4c3noc(Cn4cnc5ncn(C)c5c4=O)n3)c2)cn1 [Example Compound 200, 7-methyl-1-((3-((1R,5S,6r)-3-(3-(1-methyl-1H-pyrazol-4-yl)phenyl)-3-azabicyclo[3.1.0]hexan-6-yl)-1,2,4-oxadiazol-5-yl)methyl)-1,7-dihydro-6H-purin-6-one]	38.4	17	–	–
Cn1cnc2ncn(Cc3nc([C@H]4[C@@H]5CN(c6cccc(-c7ccncc7)c6)C[C@@H]54)no3)c(=O)c21 [Example Compound 201, 7-methyl-1-((3-((1R,5S,6r)-3-(3-(pyridin-4-yl)phenyl)-3-azabicyclo[3.1.0]hexan-6-yl)-1,2,4-oxadiazol-5-yl)methyl)-1,7-dihydro-6H-purin-6-one]	67	66	–	–
Cn1cnc2ncn(Cc3nc([C@H]4[C@@H]5CN(c6cccc(-n7cccn7)c6)C[C@@H]54)no3)c(=O)c21 [Example Compound 202, 1-((3-((1R,5S,6r)-3-(3-(1H-pyrazol-1-yl)phenyl)-3-azabicyclo[3.1.0]hexan-6-yl)-1,2,4-oxadiazol-5-yl)methyl)-7-methyl-1,7-dihydro-6H-purin-6-one]	50.1	–	–	–
Cn1cnc2ncn(Cc3nc([C@H]4[C@@H]5CN(c6cccc(-c7cccnc7)c6)C[C@@H]54)no3)c(=O)c21 [Example Compound 203, 7-methyl-1-((3-((1R,5S,6r)-3-(3-(pyridin-3-yl)phenyl)-3-azabicyclo[3.1.0]hexan-6-yl)-1,2,4-oxadiazol-5-yl)methyl)-1,7-dihydro-6H-purin-6-one]	46.3	78	–	–
Cn1cnc2ncn(Cc3nc([C@H]4[C@@H]5CN(c6ccc(Cl)cn6)C[C@@H]54)no3)c(=O)c21 [Example Compound 205, 1-((3-((1R,5S,6r)-3-(5-chloropyridin-2-yl)-3-azabicyclo[3.1.0]hexan-6-yl)-1,2,4-oxadiazol-5-yl)methyl)-7-methyl-1,7-dihydro-6H-purin-6-one]	496	86	–	–
Cn1cnc2ncn(Cc3nc([C@H]4C[C@](F)(c5ccc(F)cc5)C4)no3)c(=O)c21 [Example Compound 206, 1-((3-((1s,3s)-3-fluoro-3-(4-fluorophenyl)cyclobutyl)-1,2,4-oxadiazol-5-yl)methyl)-7-methyl-1,7-dihydro-6H-purin-6-one]	313	–	–	–
O=c1c2cccnc2ncn1Cc1nc([C@H]2C[C@](F)(c3ccc(F)cc3)C2)no1 [Example Compound 207, 3-((3-((1s,3s)-3-fluoro-3-(4-fluorophenyl)cyclobutyl)-1,2,4-oxadiazol-5-yl)methyl)pyrido[2,3-d]pyrimidin-4(3H)-one]	95	–	–	–
O=c1c2cccnc2ncn1Cc1nc([C@H]2C[C@H](c3ccc(Cl)cc3)C2)no1 [Example Compound 208, 3-((3-((1r,3r)-3-(4-chlorophenyl)cyclobutyl)-1,2,4-oxadiazol-5-yl)methyl)pyrido[2,3-d]pyrimidin-4(3H)-one]	78.5	–	–	–
Cn1cnc2ncn(Cc3nc([C@H]4C[C@H](c5cc(Cl)ccc5F)C4)no3)c(=O)c21 [Example Compound 209, 1-((3-((1r,3r)-3-(5-chloro-2-fluorophenyl)cyclobutyl)-1,2,4-oxadiazol-5-yl)methyl)-7-methyl-1,7-dihydro-6H-purin-6-one]	886	–	–	–
Cc1ccnc2ncn(Cc3nc([C@H]4C[C@](F)(c5cccc(Cl)c5)C4)no3)c(=O)c12 [Example Compound 210, 3-((3-((1s,3s)-3-(3-chlorophenyl)-3-fluorocyclobutyl)-1,2,4-oxadiazol-5-yl)methyl)-5-methylpyrido[2,3-d]pyrimidin-4(3H)-one]	15.1	–	–	–
Cn1cnc2ncn(Cc3nc([C@H]4[C@@H]5CN(c6ccc7ncsc7c6)C[C@@H]54)no3)c(=O)c21 [Example Compound 211, 1-((3-((1R,5S,6r)-3-(benzo[d]thiazol-6-yl)-3-azabicyclo[3.1.0]hexan-6-yl)-1,2,4-oxadiazol-5-yl)methyl)-7-methyl-1,7-dihydro-6H-purin-6-one]	63.8	10	–	–
Cn1cnc2ncn(Cc3nc([C@H]4[C@@H]5CN(c6cc(Cl)ccn6)C[C@@H]54)no3)c(=O)c21 [Example Compound 212, 1-((3-((1R,5S,6r)-3-(4-chloropyridin-2-yl)-3-azabicyclo[3.1.0]hexan-6-yl)-1,2,4-oxadiazol-5-yl)methyl)-7-methyl-1,7-dihydro-6H-purin-6-one]	84.7	25	–	–
O=c1c2cccnc2cnn1Cc1nc([C@H]2[C@@H]3CN(c4ccccc4)C[C@@H]32)no1 [Example Compound 213, 6-((3-((1R,5S,6r)-3-phenyl-3-azabicyclo[3.1.0]hexan-6-yl)-1,2,4-oxadiazol-5-yl)methyl)pyrido[2,3-d]pyridazin-5(6H)-one]	6.17	5.1	15.4	8.5
O=c1c2cccnc2cnn1Cc1nc([C@H]2[C@@H]3CN(c4cccc(Cl)c4)C[C@@H]32)no1 [Example Compound 214, 6-((3-((1R,5S,6r)-3-(3-chlorophenyl)-3-azabicyclo[3.1.0]hexan-6-yl)-1,2,4-oxadiazol-5-yl)methyl)pyrido[2,3-d]pyridazin-5(6H)-one]	2.88	–	–	–
Cn1c(=O)c2c(ncn2Cc2nc([C@H]3[C@@H]4CN(c5cccc(Cl)c5)C[C@@H]43)no2)n(C)c1=O [Example Compound 215, 7-((3-((1R,5S,6r)-3-(3-chlorophenyl)-3-azabicyclo[3.1.0]hexan-6-yl)-1,2,4-oxadiazol-5-yl)methyl)-1,3-dimethyl-3,7-dihydro-1H-purine-2,6-dione]	56.5	–	–	–
O=c1c2cccnc2ncn1Cc1nc([C@H]2[C@@H]3CN(c4cccc(Cl)c4)C[C@@H]32)no1 [Example Compound 216, 3-((3-((1R,5S,6r)-3-(3-chlorophenyl)-3-azabicyclo[3.1.0]hexan-6-yl)-1,2,4-oxadiazol-5-yl)methyl)pyrido[2,3-d]pyrimidin-4(3H)-one]	13.8	–	–	13
Cn1cnc2ncn(Cc3nc([C@H]4C[C@H](Oc5cccc(Cl)c5)C4)no3)c(=O)c21 [Example Compound 217, 1-((3-((1r,3r)-3-(3-chlorophenoxy)cyclobutyl)-1,2,4-oxadiazol-5-yl)methyl)-7-methyl-1,7-dihydro-6H-purin-6-one]	38	–	–	–
Cn1cnc2ncn(Cc3nc([C@H]4C[C@H](Oc5ccc(Cl)cc5)C4)no3)c(=O)c21 [Example Compound 218, 1-((3-((1r,3r)-3-(4-chlorophenoxy)cyclobutyl)-1,2,4-oxadiazol-5-yl)methyl)-7-methyl-1,7-dihydro-6H-purin-6-one]	24.9	13	–	–
Cn1cnc2ncn(Cc3nc([C@H]4[C@@H]5CN(c6cc(Cl)c(F)cc6F)C[C@@H]54)no3)c(=O)c21 [Example Compound 219, 1-((3-((1R,5S,6r)-3-(5-chloro-2,4-difluorophenyl)-3-azabicyclo[3.1.0]hexan-6-yl)-1,2,4-oxadiazol-5-yl)methyl)-7-methyl-1,7-dihydro-6H-purin-6-one]	29.3	31	–	–
Cn1cnc2ncn(Cc3nc([C@H]4C[C@H](c5ccc(F)c(Cl)c5)C4)no3)c(=O)c21 [Example Compound 220, 1-((3-((1r,3r)-3-(3-chloro-4-fluorophenyl)cyclobutyl)-1,2,4-oxadiazol-5-yl)methyl)-7-methyl-1,7-dihydro-6H-purin-6-one]	54.6	–	–	–
Cn1cnc2ncn(Cc3nc([C@H]4[C@@H]5CN(c6ccc7scnc7c6)C[C@@H]54)no3)c(=O)c21 [Example Compound 221, 1-((3-((1R,5S,6r)-3-(benzo[d]thiazol-5-yl)-3-azabicyclo[3.1.0]hexan-6-yl)-1,2,4-oxadiazol-5-yl)methyl)-7-methyl-1,7-dihydro-6H-purin-6-one]	94	41	–	–
Cn1cnc2ncn(Cc3nc([C@H]4[C@@H]5CN(c6c(F)ccc(Cl)c6F)C[C@@H]54)no3)c(=O)c21 [Example Compound 222, 1-((3-((1R,5S,6r)-3-(3-chloro-2,6-difluorophenyl)-3-azabicyclo[3.1.0]hexan-6-yl)-1,2,4-oxadiazol-5-yl)methyl)-7-methyl-1,7-dihydro-6H-purin-6-one]	29.7	6.7	–	–
Cn1cnc2ncn(Cc3nc([C@H]4CC[C@H](c5ccc(Cl)cc5)C4)no3)c(=O)c21 [Example Compound 223, 1-((3-((1S,3S)-3-(4-chlorophenyl)cyclopentyl)-1,2,4-oxadiazol-5-yl)methyl)-7-methyl-1,7-dihydro-6H-purin-6-one]	22.2	–	–	–
Cc1cccc(N2C[C@@H]3[C@H](C2)[C@H]3c2noc(Cn3cnc4ncn(C)c4c3=O)n2)c1 [Example Compound 224, 7-methyl-1-((3-((1R,5S,6r)-3-(m-tolyl)-3-azabicyclo[3.1.0]hexan-6-yl)-1,2,4-oxadiazol-5-yl)methyl)-1,7-dihydro-6H-purin-6-one]	71.6	19	–	–
